The text below walks through data of ChEMBL document CHEMBL1124124, “Synthesis and interaction with uridine phosphorylase of 5'-deoxy-4',5-difluorouridine, a new prodrug of 5-fluorouracil” (J Med Chem, 1988).

Series [1] is described as follows: Half life at pH 1. The class given is ADME. Conditions: buffer.
The nature of series [2]: Half life at pH 7.5. The format is ADME. Conditions: buffer.
For another series, the system named is L1210. Briefly: Inhibition of cell growth of L1210 mouse Leukemia cells. The class given is functional, cell-based.
A short description of series [3]: Half life at pH 7.5; Not detectable hydrolysis after 7 days. The settings on record: buffer, pH 7.5, 168 h. The class given is ADME.

In the case of `C[C@@]1(F)OC(n2cc(F)c(=O)[nH]c2=O)[C@H](O)[C@@H]1O` (some centres not stated), the half-life in series [1] is 0.0208 days; in series [2] it was 720 min. For the same compound, the IC50 with L1210 is 300 nM.

In series [1], `C[C@H]1O[C@@H](n2cc(F)c(=O)[nH]c2=O)[C@H](O)[C@@H]1O` [DOXIFLURIDINE] gave a half-life of 10.4 days. Further, in series [3], the T1/2 entry is “No detectable hydrolysis”. This compound also displayed an IC50 with L1210 of 3000 nM.

`O=c1[nH]cc(F)c(=O)[nH]1` [FLUOROURACIL] displayed an IC50 with L1210 of 300 nM.

The term half-life denotes how long it takes for the measured level to halve. As a reminder, the IC50 is the concentration that inhibits the measured activity by half. Higher therefore signals a need for much substance.
